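The compound was tested at five concentrations on cells cultured in 96-well plates, with a 48-hour exposure period. GI50: concentration for 50% inhibition of growth.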 Active and inactive are the calls of the source. Cut-off read from the data, not from the text of the source: active = GI50 up to about 1.1 µM and inactive = higher.
Experiments:
Experiment in all cases: NCI anticancer screen, dose series, 48 h
ACHN = system: ACHN
CAKI-1 = system: CAKI-1
CCRF-CEM = system: CCRF-CEM
DU-145 = system: DU-145
EKVX = system: EKVX
HCC 2998 = system: HCC 2998
HOP-92 = system: HOP-92
HT-29 = system: HT-29
KM12 = system: KM12
M14 = system: M14
MDA-MB-231 = system: MDA-MB-231
MDA-N = system: MDA-N
NCI-H460 = system: NCI-H460
NCI/ADR-RES = system: NCI/ADR-RES
RPMI-8226 = system: RPMI-8226
SF-539 = system: SF-539
SNB-75 = system: SNB-75
SR = system: SR
SW-620 = system: SW-620
UACC-257 = system: UACC-257

| SMILES | GI50 (ACHN) | GI50 (CAKI-1) | GI50 (CCRF-CEM) | GI50 (DU-145) | GI50 (EKVX) | GI50 (HCC 2998) | GI50 (HOP-92) | GI50 (HT-29) | GI50 (KM12) | GI50 (M14) | GI50 (MDA-MB-231) | GI50 (MDA-N) | GI50 (NCI-H460) | GI50 (NCI/ADR-RES) | GI50 (RPMI-8226) | GI50 (SF-539) | GI50 (SNB-75) | GI50 (SR) | GI50 (SW-620) | GI50 (UACC-257) |
| --- | --- | --- | --- | --- | --- | --- | --- | --- | --- | --- | --- | --- | --- | --- | --- | --- | --- | --- | --- | --- |
| Cc1nc2ccc(S(=O)(=O)O)cc2c(=O)n1-c1ccc(C(=O)NN2C(=O)C(Cl)C2c2cccs2)cc1 (stereo not given) | > 100 µM (inactive) | > 100 µM (inactive) | 63.1 µM (inactive) | > 100 µM (inactive) | 18.5 µM (inactive) | > 100 µM (inactive) | > 100 µM (inactive) | > 100 µM (inactive) | > 100 µM (inactive) | 18.2 µM (inactive) | 22.9 µM (inactive) | 26.1 µM (inactive) | > 100 µM (inactive) | > 100 µM (inactive) | > 100 µM (inactive) | 48 µM (inactive) | 50.4 µM (inactive) | > 100 µM (inactive) | > 100 µM (inactive) | > 100 µM (inactive) |
| C=C1C(=O)O[C@H]2[C@H]([C@H](C)CCCC(C)=O)O[C@H]([C@@]3(C)CCC(=O)O3)C[C@@H]12 | 46.9 µM (inactive) | 18.3 µM (inactive) | 26.9 µM (inactive) | 40.6 µM (inactive) | 79.3 µM (inactive) | 68.1 µM (inactive) | > 100 µM (inactive) | 90.2 µM (inactive) | 98.9 µM (inactive) | 33.9 µM (inactive) | > 100 µM (inactive) | 53.1 µM (inactive) | > 100 µM (inactive) | > 100 µM (inactive) | 31.8 µM (inactive) | 59.8 µM (inactive) | > 100 µM (inactive) | 55.6 µM (inactive) | 46.3 µM (inactive) | 77.1 µM (inactive) |
| CC(C)(C)c1cc(/C=C(\C#N)C2=NCCO2)cc(C(C)(C)C)c1O | 3.56 µM (inactive) | 3.04 µM (inactive) | 2.4 µM (inactive) | 4.94 µM (inactive) | 4.99 µM (inactive) | 2.92 µM (inactive) | 4.06 µM (inactive) | 3.2 µM (inactive) | 3.57 µM (inactive) | 5.02 µM (inactive) | 3.14 µM (inactive) | 4.42 µM (inactive) | 2.51 µM (inactive) | 2.66 µM (inactive) | 1.86 µM (inactive) | 3.77 µM (inactive) | 2.42 µM (inactive) | 2.92 µM (inactive) | 4.06 µM (inactive) | 2.64 µM (inactive) |
| O=C(Nc1cccc(NC(=O)C(=O)C2CCC3=C(Sc4ccccc4N3)C2=O)n1)C(=O)C1CCC2=C(Sc3ccccc3N2)C1=O (stereo not given) | 76.6 µM (inactive) | 38.3 µM (inactive) | 70.1 µM (inactive) | > 100 µM (inactive) | 85.1 µM (inactive) | 29.8 µM (inactive) | > 100 µM (inactive) | 67.9 µM (inactive) | 29.2 µM (inactive) | 86.3 µM (inactive) | > 100 µM (inactive) | 40.2 µM (inactive) | 65.9 µM (inactive) | 40.8 µM (inactive) | 40.2 µM (inactive) | 13.1 µM (inactive) | 9.68 µM (inactive) | 71.4 µM (inactive) | 40.7 µM (inactive) | > 100 µM (inactive) |
| c1ccc2c(c1)nc1n2CCNC1 | > 100 µM (inactive) | > 100 µM (inactive) | > 100 µM (inactive) | > 100 µM (inactive) | > 100 µM (inactive) | > 100 µM (inactive) | > 100 µM (inactive) | > 100 µM (inactive) | > 100 µM (inactive) | > 100 µM (inactive) | > 100 µM (inactive) | > 100 µM (inactive) | > 100 µM (inactive) | > 100 µM (inactive) | > 100 µM (inactive) | > 100 µM (inactive) | > 100 µM (inactive) | > 100 µM (inactive) | > 100 µM (inactive) | > 100 µM (inactive) |
| COC(=O)c1ccc(O)c2nc3c(C=O)c(O)cc(O)c3nc12 [LOMOFUNGIN] | 0.32 µM (active) | 0.345 µM (active) | 0.259 µM (active) | 0.685 µM (active) | 1.36 µM (inactive) | 4.93 µM (inactive) | 1.2 µM (inactive) | 0.458 µM (active) | 1.3 µM (inactive) | 0.592 µM (active) | 3.17 µM (inactive) | 1.67 µM (inactive) | 0.413 µM (active) | 0.0998 µM (active) | 0.811 µM (active) | 0.0585 µM (active) | 1.78 µM (inactive) | 10.6 µM (inactive) | 0.641 µM (active) | 0.782 µM (active) |

Reference: ChEMBL document CHEMBL1201862, “PubChem BioAssay data set” (2004)
